Results reported in US8604023B2, “1,4-benzodiazepinone compounds and their use in treating cancer” (The Regents of the University of Michigan, priority 2009, dated 2013).

Columns and labels:
[1] = tested on: UACC-62; test: cancer cell growth inhibition (SRB); format: cell-based, human; conditions: Melanoma
[2] = tested on: KM12; test: cancer cell growth inhibition (SRB); format: cell-based, human; conditions: Colon Cancer
[3] = tested on: M14; test: cancer cell growth inhibition (SRB); format: cell-based, human; conditions: Melanoma
[4] = tested on: SF-295; test: cancer cell growth inhibition (SRB); format: cell-based, human; conditions: CNS Cancer
[5] = tested on: SNB-75; test: cancer cell growth inhibition (SRB); format: cell-based, human; conditions: CNS Cancer
[6] = tested on: RPMI-8226; test: cancer cell growth inhibition (SRB); format: cell-based, human; conditions: Leukemia
[7] = tested on: UACC-257; test: cancer cell growth inhibition (SRB); format: cell-based, human; conditions: Melanoma
[8] = tested on: COLO 205; test: cancer cell growth inhibition (SRB); format: cell-based, human; conditions: Colon Cancer
[9] = tested on: SN12C; test: cancer cell growth inhibition (SRB); format: cell-based, human; conditions: Renal Cancer
[10] = tested on: SK-MEL-2; test: cancer cell growth inhibition (SRB); format: cell-based, human; conditions: Melanoma
[11] = tested on: HOP-92; test: cancer cell growth inhibition (SRB); format: cell-based, human; conditions: Non-Small Cell Lung Cancer
[12] = tested on: MDA-MB-435; test: cancer cell growth inhibition (SRB); format: cell-based, human; conditions: Breast Cancer
[13] = tested on: IGROV1; test: cancer cell growth inhibition (SRB); format: cell-based, human; conditions: Ovarian Cancer
[14] = tested on: MOLT-4; test: cancer cell growth inhibition (SRB); format: cell-based, human; conditions: Leukemia
[15] = tested on: A498; test: cancer cell growth inhibition (SRB); format: cell-based, human; conditions: Renal Cancer
[16] = tested on: 786-0; test: cancer cell growth inhibition (SRB); format: cell-based, human; conditions: Renal Cancer
[17] = tested on: BT-549; test: cancer cell growth inhibition (SRB); format: cell-based, human; conditions: Breast Cancer
[18] = tested on: HCT-116; test: cancer cell growth inhibition (SRB); format: cell-based, human; conditions: Colon Cancer
[19] = tested on: SF-268; test: cancer cell growth inhibition (SRB); format: cell-based, human; conditions: CNS Cancer
[20] = tested on: MALME-3M; test: cancer cell growth inhibition (SRB); format: cell-based, human; conditions: Melanoma
[21] = tested on: CAKI-1; test: cancer cell growth inhibition (SRB); format: cell-based, human; conditions: Renal Cancer
[22] = tested on: CCRF-CEM; test: cancer cell growth inhibition (SRB); format: cell-based, human; conditions: Leukemia
[23] = tested on: SF-539; test: cancer cell growth inhibition (SRB); format: cell-based, human; conditions: CNS Cancer
[24] = tested on: PC-3; test: cancer cell growth inhibition (SRB); format: cell-based, human; conditions: Prostate Cancer
[25] = tested on: HT29; test: cancer cell growth inhibition (SRB); format: cell-based, human; conditions: Colon Cancer
[26] = tested on: SR; test: cancer cell growth inhibition (SRB); format: cell-based, human; conditions: Leukemia
[27] = tested on: A549/ATCC; test: cancer cell growth inhibition (SRB); format: cell-based, human; conditions: Non-Small Cell Lung Cancer
[28] = tested on: NCI-H460; test: cancer cell growth inhibition (SRB); format: cell-based, human; conditions: Non-Small Cell Lung Cancer
[29] = tested on: HCC-2998; test: cancer cell growth inhibition (SRB); format: cell-based, human; conditions: Colon Cancer
[30] = tested on: NCI-H522; test: cancer cell growth inhibition (SRB); format: cell-based, human; conditions: Non-Small Cell Lung Cancer
[31] = tested on: T-47D; test: cancer cell growth inhibition (SRB); format: cell-based, human; conditions: Breast Cancer
[32] = tested on: OVCAR-8; test: cancer cell growth inhibition (SRB); format: cell-based, human; conditions: Ovarian Cancer
[33] = tested on: ACHN; test: cancer cell growth inhibition (SRB); format: cell-based, human; conditions: Renal Cancer
[34] = tested on: RXF 393; test: cancer cell growth inhibition (SRB); format: cell-based, human; conditions: Renal Cancer
[35] = tested on: NCI/ADR-RES; test: cancer cell growth inhibition (SRB); format: cell-based, human; conditions: Breast Cancer
[36] = tested on: OVCAR-5; test: cancer cell growth inhibition (SRB); format: cell-based, human; conditions: Ovarian Cancer
[37] = tested on: LOXIMVI; test: cancer cell growth inhibition (SRB); format: cell-based, human; conditions: Melanoma
[38] = tested on: NCI-H23; test: cancer cell growth inhibition (SRB); format: cell-based, human; conditions: Non-Small Cell Lung Cancer
[39] = tested on: EKVX; test: cancer cell growth inhibition (SRB); format: cell-based, human; conditions: Non-Small Cell Lung Cancer
[40] = tested on: HL-60(TB); test: cancer cell growth inhibition (SRB); format: cell-based, human; conditions: Leukemia
[41] = tested on: HS 578T; test: cancer cell growth inhibition (SRB); format: cell-based, human; conditions: Breast Cancer
[42] = tested on: UO-31; test: cancer cell growth inhibition (SRB); format: cell-based, human; conditions: Renal Cancer
[43] = tested on: OVCAR-4; test: cancer cell growth inhibition (SRB); format: cell-based, human; conditions: Ovarian Cancer
[44] = tested on: SK-MEL-5; test: cancer cell growth inhibition (SRB); format: cell-based, human; conditions: Melanoma
[45] = tested on: NCI-H226; test: cancer cell growth inhibition (SRB); format: cell-based, human; conditions: Non-Small Cell Lung Cancer
[46] = tested on: SK-MEL-28; test: cancer cell growth inhibition (SRB); format: cell-based, human; conditions: Melanoma
[47] = tested on: HCT-15; test: cancer cell growth inhibition (SRB); format: cell-based, human; conditions: Colon Cancer
[48] = tested on: OVCAR-3; test: cancer cell growth inhibition (SRB); format: cell-based, human; conditions: Ovarian Cancer
[49] = tested on: SK-OV-3; test: cancer cell growth inhibition (SRB); format: cell-based, human; conditions: Ovarian Cancer
[50] = tested on: DU-145; test: cancer cell growth inhibition (SRB); format: cell-based, human; conditions: Prostate Cancer
[51] = tested on: HOP-62; test: cancer cell growth inhibition (SRB); format: cell-based, human; conditions: Non-Small Cell Lung Cancer
[52] = tested on: NCI-H322M; test: cancer cell growth inhibition (SRB); format: cell-based, human; conditions: Non-Small Cell Lung Cancer
[53] = tested on: MCF7; test: cancer cell growth inhibition (SRB); format: cell-based, human; conditions: Breast Cancer
[54] = tested on: MDA-MB-231/ATCC; test: cancer cell growth inhibition (SRB); format: cell-based, human; conditions: Breast Cancer
[55] = tested on: SNB-19; test: cancer cell growth inhibition (SRB); format: cell-based, human; conditions: CNS Cancer
[56] = tested on: SW-620; test: cancer cell growth inhibition (SRB); format: cell-based, human; conditions: Colon Cancer
[57] = tested on: U251; test: cancer cell growth inhibition (SRB); format: cell-based, human; conditions: CNS Cancer
[58] = tested on: K-562; test: cancer cell growth inhibition (SRB); format: cell-based, human; conditions: Leukemia
[59] = tested on: Ramos cells; test: cytotoxicity in Ramos cells; format: cell-based; conditions: Homo sapiens
Experimental: The compounds listed in Table 5 were tested for cytotoxicity in Ramos cells. The assay was conducted as described in K. M. Johnson et al. Chemistry & Biology 2005, 12, 485-496.

[60] = tested on: TK-10; test: cancer cell growth inhibition (SRB); format: cell-based, human; conditions: Renal Cancer

O=C1Nc2ccc(Cl)cc2C(c2ccc(N3CCNCC3)nc2)=NC1Cc1ccccc1Cl (stereo not drawn) [Compound V-23]
growth inhibition of the cancer cells [1]: ++ (40%-75% growth inhibition of the cancer cells) | growth inhibition of the cancer cells [2]: +++ (at least 75% growth inhibition of the cancer cells) | growth inhibition of the cancer cells [3]: +++ (at least 75% growth inhibition of the cancer cells) | growth inhibition of the cancer cells [4]: +++ (at least 75% growth inhibition of the cancer cells) | growth inhibition of the cancer cells [5]: ++ (40%-75% growth inhibition of the cancer cells) | growth inhibition of the cancer cells [6]: ++ (40%-75% growth inhibition of the cancer cells) | growth inhibition of the cancer cells [7]: +++ (at least 75% growth inhibition of the cancer cells) | growth inhibition of the cancer cells [8]: ++ (40%-75% growth inhibition of the cancer cells) | growth inhibition of the cancer cells [9]: +++ (at least 75% growth inhibition of the cancer cells) | growth inhibition of the cancer cells [10]: ++ (40%-75% growth inhibition of the cancer cells) | growth inhibition of the cancer cells [11]: ++ (40%-75% growth inhibition of the cancer cells) | growth inhibition of the cancer cells [12]: +++ (at least 75% growth inhibition of the cancer cells) | growth inhibition of the cancer cells [13]: +++ (at least 75% growth inhibition of the cancer cells) | growth inhibition of the cancer cells [14]: ++ (40%-75% growth inhibition of the cancer cells) | growth inhibition of the cancer cells [15]: + (less than 40% growth inhibition of the cancer cells) | growth inhibition of the cancer cells [16]: +++ (at least 75% growth inhibition of the cancer cells) | growth inhibition of the cancer cells [17]: +++ (at least 75% growth inhibition of the cancer cells) | growth inhibition of the cancer cells [18]: +++ (at least 75% growth inhibition of the cancer cells) | growth inhibition of the cancer cells [19]: ++ (40%-75% growth inhibition of the cancer cells) | growth inhibition of the cancer cells [20]: +++ (at least 75% growth inhibition of the cancer cells) | growth inhibition of the cancer cells [21]: +++ (at least 75% growth inhibition of the cancer cells) | growth inhibition of the cancer cells [22]: ++ (40%-75% growth inhibition of the cancer cells) | growth inhibition of the cancer cells [23]: +++ (at least 75% growth inhibition of the cancer cells) | growth inhibition of the cancer cells [24]: ++ (40%-75% growth inhibition of the cancer cells) | growth inhibition of the cancer cells [25]: +++ (at least 75% growth inhibition of the cancer cells) | growth inhibition of the cancer cells [26]: ++ (40%-75% growth inhibition of the cancer cells) | growth inhibition of the cancer cells [27]: +++ (at least 75% growth inhibition of the cancer cells) | growth inhibition of the cancer cells [28]: +++ (at least 75% growth inhibition of the cancer cells) | growth inhibition of the cancer cells [29]: +++ (at least 75% growth inhibition of the cancer cells) | growth inhibition of the cancer cells [30]: +++ (at least 75% growth inhibition of the cancer cells) | growth inhibition of the cancer cells [31]: ++ (40%-75% growth inhibition of the cancer cells) | growth inhibition of the cancer cells [32]: ++ (40%-75% growth inhibition of the cancer cells) | growth inhibition of the cancer cells [33]: +++ (at least 75% growth inhibition of the cancer cells) | growth inhibition of the cancer cells [34]: +++ (at least 75% growth inhibition of the cancer cells) | growth inhibition of the cancer cells [35]: + (less than 40% growth inhibition of the cancer cells) | growth inhibition of the cancer cells [36]: +++ (at least 75% growth inhibition of the cancer cells) | growth inhibition of the cancer cells [37]: +++ (at least 75% growth inhibition of the cancer cells) | growth inhibition of the cancer cells [38]: ++ (40%-75% growth inhibition of the cancer cells) | growth inhibition of the cancer cells [39]: +++ (at least 75% growth inhibition of the cancer cells) | growth inhibition of the cancer cells [40]: +++ (at least 75% growth inhibition of the cancer cells) | growth inhibition of the cancer cells [41]: ++ (40%-75% growth inhibition of the cancer cells) | growth inhibition of the cancer cells [42]: +++ (at least 75% growth inhibition of the cancer cells) | growth inhibition of the cancer cells [43]: ++ (40%-75% growth inhibition of the cancer cells) | growth inhibition of the cancer cells [44]: +++ (at least 75% growth inhibition of the cancer cells) | growth inhibition of the cancer cells [45]: + (less than 40% growth inhibition of the cancer cells) | growth inhibition of the cancer cells [46]: +++ (at least 75% growth inhibition of the cancer cells) | growth inhibition of the cancer cells [47]: +++ (at least 75% growth inhibition of the cancer cells) | growth inhibition of the cancer cells [48]: +++ (at least 75% growth inhibition of the cancer cells) | growth inhibition of the cancer cells [49]: ++ (40%-75% growth inhibition of the cancer cells) | growth inhibition of the cancer cells [50]: +++ (at least 75% growth inhibition of the cancer cells) | growth inhibition of the cancer cells [51]: +++ (at least 75% growth inhibition of the cancer cells) | growth inhibition of the cancer cells [52]: + (less than 40% growth inhibition of the cancer cells) | growth inhibition of the cancer cells [53]: +++ (at least 75% growth inhibition of the cancer cells) | growth inhibition of the cancer cells [54]: +++ (at least 75% growth inhibition of the cancer cells) | growth inhibition of the cancer cells [55]: ++ (40%-75% growth inhibition of the cancer cells) | growth inhibition of the cancer cells [56]: +++ (at least 75% growth inhibition of the cancer cells) | growth inhibition of the cancer cells [57]: +++ (at least 75% growth inhibition of the cancer cells) | growth inhibition of the cancer cells [58]: +++ (at least 75% growth inhibition of the cancer cells) | EC50 [59]: ≤ 5 µM | growth inhibition of the cancer cells [60]: +++ (at least 75% growth inhibition of the cancer cells)
